Data on 5 molecules can be found in US7388007B2, “Gamma-lactams as beta-secretase inhibitors” (Bristol-Myers Squibb Company, priority 2004, dated 2008).

For this assay, the target named is T1, BACE1 enzyme (Homo sapiens, UniProt P56817).
T1 construct: The HEK293-9B.A1 cell line, which overexpresses the BACE1 enzyme, was derived from HEK293 cells; endogenous in cells; washed 48,000 x g membrane pellet / cell homogenate
T1 sequence (P56817 46-501): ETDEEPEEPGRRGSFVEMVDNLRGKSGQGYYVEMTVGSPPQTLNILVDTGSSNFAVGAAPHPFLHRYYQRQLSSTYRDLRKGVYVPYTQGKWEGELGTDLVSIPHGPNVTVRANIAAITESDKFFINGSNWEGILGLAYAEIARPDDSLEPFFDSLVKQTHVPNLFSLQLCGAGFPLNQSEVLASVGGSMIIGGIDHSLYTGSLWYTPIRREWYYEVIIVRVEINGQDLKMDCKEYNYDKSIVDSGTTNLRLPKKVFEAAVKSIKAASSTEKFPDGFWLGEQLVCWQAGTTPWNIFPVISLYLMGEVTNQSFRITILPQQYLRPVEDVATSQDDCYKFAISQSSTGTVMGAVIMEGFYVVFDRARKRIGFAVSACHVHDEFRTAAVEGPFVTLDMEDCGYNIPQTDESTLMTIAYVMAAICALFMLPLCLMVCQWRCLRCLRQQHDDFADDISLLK
Nature of the assay: Radioligand displacement assay with a radiolabeled BACE inhibitor on HEK293-9B.A1 cell homogenate. It counts as binding. As to conditions: displacement of 1 nM tritiated radioligand, HEK293-9B.A1 homogenate, pH 5.0, 1.5 hr at 25° C.; read-out: Activity Rating (based on IC50 values). From the text:
There are a number of methods by which inhibitors of the BACE enzyme can be identified experimentally. The enzyme can be obtained from membrane samples from natural tissues or cultured cells or can be expressed recombinantly in a host cell by well known methods of molecular biology. The whole enzyme or a portion thereof can be expressed, for example, in bacterial, insect or mammalian cells to obtain a catalytically active enzyme species. The enzymatic activity and/or ligand binding capability of the enzyme can be assessed within these membrane samples, or the enzyme can be purified to varying extents. As an illustrative example, the nucleic acid sequence encoding the pro and catalytic domains of human BACE can be appended on the 5′ end with an untranslated and signal sequence from the gene for acetylcholinesterase, and on the 3′ end with a sequence encoding a poly-histidine tag. This cDNA can then be expressed in Drosophila melanogaster S2 cells in which the signal and pro sequences of the transcribed/translated protein are removed by cellular proteases and the catalytic domain, appended by a C-terminal poly-histidine tag, is secreted out into the cellular medium. The enzyme can then be purified from the culture medium by nickel affinity chromatography by methods well known to those trained in the art [Mallender, W. et al., (2001) “Characterization of recombinant, soluble beta-secretase from an insect cell expression system.” Mol. Pharmacol. 59: 619-626]. Similar strategies for expressing and purifying various forms of BACE in bacterial, mammalian and other cell types would be known to one skilled in the art. A preferred method for determining the potency of a test compound in binding to the BACE enzyme is by moitoring the displacement of a suitable radioligand.
Radioligand displacement assays with a radiolabeled BACE inhibitor (WO 2004 013098, compound 3, where the methoxy group is substituted for C(^3H)3) were carried out using standard methods (Keen, M. (1999) in Receptor Binding Techniques (Walker, J. M. ed) p. 106 Humana Press, Totowa, N.J.). The HEK293-9B.A1 cell line, which overexpresses the BACE1 enzyme, was derived from HEK293 cells (Simmons, N. L. (1990) A cultured human renal epithelioid cell line responsive to vasoactive intestinal peptide. Exp. Physiol. 75:309-19.) by RAGE™ (Harrington, J. J. et al. (2001) Creation of genome-wide protein expression libraries using random activation of gene expression. Nat. Biotechnol. 19:440-5; U.S. Pat. Nos. 6,410,266 and 6,361,972). T225 flask cultures of HEK293-9B.A1 were grown to 80% confluency in DMEM supplemented with 2 mM L-glutamine, 10 μg/ml penecillin, 10 μg/ml streptomycin, 3 μg/ml puromycin, 100 nM methotrexate, and 10% fetal bovine serum (Invitrogen, Carlsbad, Calif.), harvested, and resuspended at 2×10^8 cells per 10 ml of lysis buffer consisting of 50 mM HEPES pH 7.0 containing a protease inhibitor cocktail of AEBSF 104 μM, aprotinin 80 nM, leupeptin 2 μM, bestatin 4 μM, pepstatin A 1.5 μM, and E-64 1.4 μM (0.1% of protease inhibitor cocktail P8340, Sigma-Aldrich, St. Louis, Mo.) at 4° C. The resuspended cells were homogenized using a Polytron (Brinkman, Westbury, N.Y.) at setting 6 for 10 sec., then centrifuged at 48,000×g for 10 min. The resulting pellet was washed by repeating the resuspension, homogenization and centrifugation steps. […]
For orientation: Displacement assays read how much labelled ligand stays bound in the presence of the test substance.
Broadly, the IC50 is the point on the concentration scale where inhibition reaches its midpoint. Turning to `CCCOC1CN[C@@H]([C@@H](O)C(Cc2cc(F)cc(F)c2)NC(=O)[C@H](C)N2CC[C@H](CC(C)C)C2=O)C1` (some centres unmarked) [Example 7], the IC50 is 100 to 1000 nM.

With `CC[C@@H](C)[C@@]1(NC(C)=O)CCN([C@@H](CCc2ccccc2)C(=O)N[C@@H](Cc2cc(F)cc(F)c2)[C@H](O)[C@H]2C[C@H](O)CN2)C1=O` [Example 15, (S)-2-((S)-3-acetamido-3-((R)-sec-butyl)-2-oxopyrrolidin-1-yl)-N-((1R,2S)-3-(3,5-difluorophenyl)-1-hydroxy-1-((2R,4S)-4-hydroxypyrrolidin-2-yl)propan-2-yl)-4-phenylbutanamide], the IC50 was less than 100 nM.

Turning to `CCC(C)[C@@]1(NC(C)=O)CCN([C@@H](CCc2ccccc2)C(=O)N[C@@H](Cc2cc(F)cc(F)c2)[C@H](O)[C@H]2CCCCN2)C1=O` (stereo in doubt) [Example 8, (S)-2-((S)-3-acetamido-3-((R)-sec-butyl)-2-oxopyrrolidin-1-yl)-N-((1R,2S)-3-(3,5-difluorophenyl)-1-hydroxy-1-((R)-piperidin-2-yl)propan-2-yl)-4-phenylbutanamide], the 50% inhibitory concentration (IC50) was less than 100 nM.

For the molecule `CCCO[C@H]1CN[C@@H]([C@@H](O)[C@H](Cc2cc(F)cc(F)c2)NC(=O)[C@H](CCc2ccccc2)N2CC[C@](NC(C)=O)([C@@H](C)CC)C2=O)C1` (stereo in doubt) [Example 2, (S)-2-((R)-3-acetamido-3-secbutyl-2-oxopyrrolidin-1-yl)-N-((1R,2S)-3-(3,5-difluorophenyl)-1-hydroxy-1-((2R,4R)-4-propoxypyrrolidin-2-yl)propan-2-yl)-4-phenylbutanamide], the half-inhibitory concentration (IC50) was less than 100 nM.

With `CCCS(=O)(=O)[C@H]1CN[C@@H]([C@@H](O)[C@H](Cc2ccccc2)NC(=O)[C@H](CCc2ccccc2)N2CC[C@](NC(C)=O)([C@H](C)CC)C2=O)C1` [Example 22, (S)-2-((S)-3-acetamido-3-((R)-sec-butyl)-2-oxopyrrolidin-1-yl)-N-((1R,2S)-1-hydroxy-3-phenyl-1-((2R,4R)-4-(propylsulfonyl)pyrrolidin-2-yl)propan-2-yl)-4-phenylbutanamide], the IC50 was less than 100 nM.
